Measured values from patent US10117943B2, “Synthetic antibody mimetic compounds (SYAMS) targeting cancer, especially prostate cancer” (YALE UNIVERSITY, priority 2013, dated 2018).

Legend:
Type in all cases: cell-based
RM1.PGLS cells [1] = assay: Phagocytosis of PSMA expressing RM1.PGLS cells by IFN-γ primed U937 cells; conditions: for phagocytosis of RM1.PGLS cells (in words): IFN-γ primed U937 effectors
Method: Target cell passing: Three days before the experiments, a plate of target cells, RM1.PGLS cells were passed into a new flask.
Effector cell priming: Three days before the experiments, a plate of U937 cells (approximately 60% confluent) was passed into a new Petri dish (10 mL colored ADCP media total volume). IFN-γ (20 μL, 100 μg/mL in DPBS) was added, and the cells were maintained in an incubator (37° C., 24 h). The cells were transferred into a Falcon tube, and DiD (19 uL, final concentration=1.9 μM) was added. The cells were maintained in an incubator (37° C., 30 min), pelleted, aspirated, resuspended in colored ADCP media (10 mL), and split equally into two Petri dishes. To each dish were added additional colored ADCP media (5 mL) and IFN-γ (20 μL, 100 μg/mL in DPBS), and the cells were maintained in an incubator (37° C., 24 h).
Target cell preparation: To a plate of target cells (60-80% confluent RM1.PGLS cells 10 mL total media volume) was added DiO (20 μL, final concentration=2 μM). The cells were maintained in an incubator (37° C., 30 min), aspirated, and washed with colored ADCP media (3×10 mL). Colored ADCP media (10 mL) was added. The cells were maintained in an incubator (37° C., 2 h), detached and resuspended in color-free ADCP media at a concentration of 0.5 million cells per mL.
Effector cell preparation: Both dishes of primed U937 cells were transferred into a Falcon tube, pelleted, aspirated, resuspended in color-free ADCP media (10 mL), counted, and diluted with color-free ADCP media to give a final concentration of 2 million cells per mL.
Phagocytosis: All conditions were run in triplicate. For each experiment, into a sterile 2 mL Eppendorf tube were added color-free ADCP media (25 μL) containing either various concentrations of SyAM-Px or ARM-P8/Anti-DNP antibody, target cells (25 μL=12,500 cells), and effector cells (50 μL=100,000 cells), to give an effector-to-target ratio of 8:1. Tubes were gently agitated by hand. The cells were pelleted (2 min, 1100 rpm). The tubes were opened, maintained in an incubator (37° C., 1 h), resuspended by briefly agitating with a vortex, and analyzed by flow cytometry.

PSMA coated beads [2] = assay: Molecule induced phagocytosis of PSMA coated beads by IFN-γ primed U937 cells; conditions: for Observed % Phagocytosis (50 nM SyAM-P2): beads; for phagocytosis of PSMA coated beads (comparison in words): compared with the previous generation SyAM-P
Method: (§1) Three days before the experiments, a plate of U937 cells (approximately 60% confluent) was passed into a new Petri dish (10 mL colored RPMI growth media total volume). IFN-γ (20 μL, 100 μg/mL in DPBS) was added, and the cells were maintained in an incubator (37° C., 24 h). The cells were pelleted after 24 hours and resuspended in 10 mL of IFN-γ (20 uL, 100 ug/mL in DPBS) and maintained in an incubator (37° C., 24 h)
For phagocytosis: cells were transferred into a Falcon tube, and DiD (19 uL, final concentration=1.9 μM) was added. The cells were maintained in an incubator (37° C., 30 min), pelleted, aspirated, resuspended in RPMI growth media (10 mL), and split equally into two Petri dishes. To each dish were added additional colored RPMI growth media (5 mL) and IFN-γ (20 μL, 100 μg/mL in DPBS), and maintained in an incubator (37° C., 24 h).
[…] streptavidin fluoresbrite YG microspheres from Polysciences were incubated with 4× concentration of avi-tagged PSMA for 30 minutes at room temperature in DPBS (concentration of avi-tagged PSMA is dependent on biotin loading capacity of microspheres). Beads were washed with DPBS 2× and resuspended in color-free ADCP media at 1.6 million beads/mL.
Phagocytosis: 25 uL of bead solution was added to 25 uL of ADCP media either with or without molecules at various concentrations in an eppendorf tube. To this 50 uL of 4 million/mL primed U937 cells were added, gently mixed and then centrifuged at […] for 2 minutes. The caps were opened and placed in an incubator (37° C., 1 hr) at which point the eppendorfs were closed and placed on ice. Samples were vortexed and run on an Accuri C6 flow cytometer for a total of 50 k counts.
Data analysis: For each experiment 50,000 events were counted. Forward and side scatter plots were optimally gated to remove debris particles and cellular aggregates. On a plot of FL-2 vs FL-4 the following populations were counted: […]

RM1.PGLS cells [3] = assay: Superoxide burst (lucigenin) by primed U937 cells against RM1.PGLS cells; conditions: IFN-γ primed U937 effectors
Text: Since SyAM-P1 was able to induce effector-cell mediated responses against target protein coated beads, the inventors then evaluated if the molecule can elicit the effects against PSMA expressing cells. To that end, the inventors evaluated the SyAM-P1 induced immune responses by primed U937 effector cells against PSMA expressing RM1.PGLS cells. They tested the U937-mediated immune effects by evaluating both superoxide burst and phagocytosis of effector cells, analogous to the protein coated bead experiments. In this experiment, IFN-γ primed U937 cells were incubated with PSMA expressing RM1.PGLS cells, and treated with various concentrations of SyAM-P1. The resulting superoxide burst response was measured using the lucigenin assay (data not shown). Additionally, primed U937 cells (stained with DiD, an FL4 membrane dye) were incubated with target RM1.PGLS cells (stained with […], an FL1 membrane dye), in the presence of various concentrations of SyAM-P 1. The resulting phagocytosis—indicated by FL1 and FL4 double positive cells—was measured using two-color flow-cytometry. As a positive control, ARM-P8 combined with anti-DNP antibodies was utilized. […] The positive response seen with the Arm-P8 control, could potentially be attributed to the ability of antibodies to ligate both FcγRI and FcγRIIA on the immune effector cells, increasing immune signaling and phagocytic responses.

PSMA coated beads [4] = assay: ROS production (superoxide burst, lucigenin) by primed U937 cells against PSMA coated beads
Method: as §1
For ROS production cells were resuspended in RPMI growth media (10 mL), and split equally into two Petri dishes. To each dish were added additional colored RPMI growth media (5 mL) and IFN-γ (20 μL, 100 μg/mL in DPBS), and maintained in an incubator (37° C., 24 h)
Primed U937 were suspended in color-free ADCP media at a concentration of 3×10^5 U937 cells and mixed with 10^5 PSMA coated beads and various concentrations of molecules in a 96 well plate in a volume of 90 uL. To each well was added 10 μl of 2.5 mM lucigenin (Tokyo Chemicals) solution to bring the total volume to 100 μl. The plate was centrifuged at 200 rcf for 2 minutes (PLATE SPINNER). The chemiluminescence was then measured at two minute intervals by plate reader (Biotek Synergy 2) for 60 to 90 minutes.

Structure (SMILES)	inhibition of SyAM-P3 induced phagocytosis of RM1.PGLS cells (RM1.PGLS cells [1]; 6.25 nM SyAM-P3, increasing inhibitor concentrations)	inhibition of SyAM-P3 induced phagocytosis of PSMA coated beads (PSMA coated beads [2]; 50 nM SyAM-P3, increasing inhibitor concentrations)	effect of inhibitor on SyAM-P1 induced immune effector responses (superoxide burst, phagocytosis of beads) (PSMA coated beads [2]; data not shown)	superoxide burst against RM1.PGLS cells (in words) (RM1.PGLS cells [3])	phagocytosis of RM1.PGLS cells (in words) (RM1.PGLS cells [1])	Observed % Phagocytosis (50 nM SyAM-P2) (RM1.PGLS cells [1]; target RM1.PGLS cells, measured 918 PSMA/um^2, 50 nM)	Observed % Phagocytosis (50 nM SyAM-P2) (PSMA coated beads [2]; labeling 2.9 pmol/bead, calculated 1972 PSMA/um^2)	Observed % Phagocytosis (50 nM SyAM-P2) (PSMA coated beads [2]; labeling 5.7 pmol/bead, calculated 3876 PSMA/um^2)	Observed % Phagocytosis (50 nM SyAM-P2) (PSMA coated beads [2]; labeling 8.2 pmol/bead, measured 5577 PSMA/um^2)	phagocytosis of PSMA coated beads (comparison in words) (PSMA coated beads [2])	superoxide production without target PSMA+ beads (PSMA coated beads [4]; SyAM-P3 alone, various concentrations)	superoxide burst against PSMA coated beads (comparison in words) (PSMA coated beads [4]; compared with SyAM-P2)	concentration of peak phagocytosis response (RM1.PGLS cells [1]; RM1.PGLS cells)	phagocytosis of RM1.PGLS cells compared with ArmP8 plus anti-DNP antibody (RM1.PGLS cells [1]; anti-DNP antibody 133 nM, background subtracted)
O=C(O)CCC(CP(=O)(O)O)C(=O)O (centres unmarked) [2-PMPA, reference compound]	inhibition of phagocytosis	inhibition of phagocytosis	abrogated											
CC(=O)N[C@H](C(=O)N[C@@H](CC(N)=O)C(=O)N[C@@H](CO)C(=O)N[C@H]1CSSC[C@@H](C(=O)NCC(=O)N[C@@H](CC(=O)O)C(=O)N[C@@H](CC(=O)O)C(=O)N[C@@H](C)C(=O)N[C@@H](CCCCNC(=O)CCCCc2cn(-c3cc(C(=O)NCCCCCC(=O)NCCCCCC(=O)NCCCCCC(=O)NCCCCCC(=O)NCCCCCC(=O)NCCCCCC(=O)NCc4cn(CCCC[C@H](NC(=O)N[C@@H](CCC(=O)O)C(=O)O)C(=O)O)nn4)cc(C(=O)NCCCCCC(=O)NCCCCCC(=O)NCCCCCC(=O)NCCCCCC(=O)NCCCCCC(=O)NCCCCCC(=O)NCc4cn(CCCC[C@H](NC(=O)N[C@@H](CCC(=O)O)C(=O)O)C(=O)O)nn4)c3)nn2)C(=O)N[C@@H](CCCCNC(=O)CCCC[C@@H]2SC[C@@H]3NC(=O)N[C@@H]32)C(N)=O)NC(=O)CNC(=O)[C@H](CC(C)C)NC(=O)[C@H](CC(C)C)NC(=O)[C@H](CC(N)=O)NC(=O)[C@@H]2CCCN2C(=O)[C@H](CC(C)C)NC(=O)[C@H](CC(C)C)NC(=O)[C@H](CC(C)C)NC1=O)C(C)C [SyAM-P2]				no response	no response	0%	10.1%	24.0%	46.2%	much higher level of phagocytosis				
CC(=O)N[C@H](C(=O)N[C@@H](CC(N)=O)C(=O)N[C@@H](CO)C(=O)N[C@H]1CSSC[C@@H](C(=O)NCC(=O)N[C@@H](CC(=O)O)C(=O)N[C@@H](CC(=O)O)C(=O)N[C@@H](CCCCNC(=O)CCCC(=O)NCCOCCOCCOCC(=O)NCCCC[C@H](NC(=O)COCCOCCOCCNC(=O)CCCC(=O)NCCCC[C@H](NC(=O)[C@H](CC(=O)O)NC(=O)[C@H](CC(=O)O)NC(=O)CNC(=O)[C@@H]2CSSC[C@H](NC(=O)[C@H](CO)NC(=O)[C@H](CC(N)=O)NC(=O)[C@@H](NC(C)=O)C(C)C)C(=O)N[C@@H](CC(C)C)C(=O)N[C@@H](CC(C)C)C(=O)N[C@@H](CC(C)C)C(=O)N3CCC[C@H]3C(=O)N[C@@H](CC(N)=O)C(=O)N[C@@H](CC(C)C)C(=O)N[C@@H](CC(C)C)C(=O)NCC(=O)N2)C(=O)N[C@@H](CCCCNC(=O)CCCC[C@@H]2SC[C@@H]3NC(=O)N[C@@H]32)C(N)=O)C(=O)NCc2cn(-c3cc(C(=O)NCCCCCC(=O)NCCCCCC(=O)NCCCCCC(=O)NCCCCCC(=O)NCCCCCC(=O)NCCCCCC(=O)NCc4cn(CCCC[C@H](NC(=O)N[C@@H](CCC(=O)O)C(=O)O)C(=O)O)nn4)cc(C(=O)NCCCCCC(=O)NCCCCCC(=O)NCCCCCC(=O)NCCCCCC(=O)NCCCCCC(=O)NCCCCCC(=O)NCc4cn(CCCC[C@H](NC(=O)N[C@@H](CCC(=O)O)C(=O)O)C(=O)O)nn4)c3)nn2)C(=O)N[C@@H](CCCCNC(=O)CCCC[C@@H]2SC[C@@H]3NC(=O)N[C@@H]32)C(N)=O)NC(=O)CNC(=O)[C@H](CC(C)C)NC(=O)[C@H](CC(C)C)NC(=O)[C@H](CC(N)=O)NC(=O)[C@@H]2CCCN2C(=O)[C@H](CC(C)C)NC(=O)[C@H](CC(C)C)NC(=O)[C@H](CC(C)C)NC1=O)C(C)C [SyAM-P3]				No response	effectively induce U937-mediated phagocytosis, in a dose dependent manner					much greater immune response	little to no background superoxide detection	much greater immune response	10 nM	phagocytosis at significantly less concentration than for ArmP8
